According to ChEMBL document CHEMBL5120925, “Antagonistic Effect and In Vitro Activity of Dauricine on Glucagon Receptor” (J Nat Prod, 2022):
Calls of active or inactive are those of the source. The calls are words filed in the database; no cut-off is given here.

Experiments:
[1] = target: Glucagon receptor (Homo sapiens) (UniProt P47871); test: Antagonist activity at […] (unknown origin) expressed in HEK293 cells assessed as inhibition of GCG binding by measuring increase in fluorescence intensity at 0.1 mM incubated for 30 to 40 mins by FLUO-4 AM based inverted fluorescence microscopic imaging analysis; type: functional, cell-based; conditions: filed as antagonist, time 30-40 min
Sequence of Glucagon receptor (Homo sapiens) (P47871 whole entry): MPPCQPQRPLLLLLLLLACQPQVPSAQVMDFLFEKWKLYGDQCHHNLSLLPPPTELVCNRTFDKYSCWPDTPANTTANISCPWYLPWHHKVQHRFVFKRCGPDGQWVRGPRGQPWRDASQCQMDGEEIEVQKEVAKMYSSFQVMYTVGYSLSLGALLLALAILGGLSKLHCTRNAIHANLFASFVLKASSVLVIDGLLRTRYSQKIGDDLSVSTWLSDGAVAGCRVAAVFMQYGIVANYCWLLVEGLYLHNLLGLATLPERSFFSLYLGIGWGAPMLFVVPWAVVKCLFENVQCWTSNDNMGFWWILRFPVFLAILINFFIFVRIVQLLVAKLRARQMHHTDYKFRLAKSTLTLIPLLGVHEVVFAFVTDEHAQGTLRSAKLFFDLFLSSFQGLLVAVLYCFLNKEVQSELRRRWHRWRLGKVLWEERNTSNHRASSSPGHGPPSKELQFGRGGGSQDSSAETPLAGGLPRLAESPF

[2] = Cytotoxicity against HEK293 cells assessed as inhibition of cell growth incubated for 24 hrs by MTT assay; type: toxicity, cell-based; conditions: human
[3] = target: Glucagon receptor (Homo sapiens) (UniProt P47871); test: Antagonist activity at GCGR (unknown origin) expressed in HEK293 cells assessed as inhibition of GCG binding by measuring increase in fluorescence intensity at 10 uM incubated for 30 to 40 mins by FLUO-4 AM fluorescence based flow cytometric analysis; type: functional, cell-based; conditions: filed as antagonist, time 30-40 min

Activity [1]	Activity [3]	Molecule	IC50 at 24 h [2] [µM]
Active	–	H-SQGTFTSEYSKYLDSRRAQDFVQWL-NH2	–
–	Active	COc1cc2c(cc1OC)[C@@H](Cc1ccc(Oc3cc(C[C@H]4c5cc(OC)c(OC)cc5CCN4C)ccc3O)cc1)N(C)CC2	10.6
